target: T1, Ribonucleoside-diphosphate reductase RR1 (Homo sapiens, UniProt P23921+P31350+Q7LG56); experiment: Inhibition of N-terminal 6xHis-tagged Homo sapiens (human) recombinant ribonucleotide reductase M2/M1 expressed in Escherichia coli BL21 (DE3) using [3H]CDP as substrate after 30 min
T1 sequence (P23921 whole entry): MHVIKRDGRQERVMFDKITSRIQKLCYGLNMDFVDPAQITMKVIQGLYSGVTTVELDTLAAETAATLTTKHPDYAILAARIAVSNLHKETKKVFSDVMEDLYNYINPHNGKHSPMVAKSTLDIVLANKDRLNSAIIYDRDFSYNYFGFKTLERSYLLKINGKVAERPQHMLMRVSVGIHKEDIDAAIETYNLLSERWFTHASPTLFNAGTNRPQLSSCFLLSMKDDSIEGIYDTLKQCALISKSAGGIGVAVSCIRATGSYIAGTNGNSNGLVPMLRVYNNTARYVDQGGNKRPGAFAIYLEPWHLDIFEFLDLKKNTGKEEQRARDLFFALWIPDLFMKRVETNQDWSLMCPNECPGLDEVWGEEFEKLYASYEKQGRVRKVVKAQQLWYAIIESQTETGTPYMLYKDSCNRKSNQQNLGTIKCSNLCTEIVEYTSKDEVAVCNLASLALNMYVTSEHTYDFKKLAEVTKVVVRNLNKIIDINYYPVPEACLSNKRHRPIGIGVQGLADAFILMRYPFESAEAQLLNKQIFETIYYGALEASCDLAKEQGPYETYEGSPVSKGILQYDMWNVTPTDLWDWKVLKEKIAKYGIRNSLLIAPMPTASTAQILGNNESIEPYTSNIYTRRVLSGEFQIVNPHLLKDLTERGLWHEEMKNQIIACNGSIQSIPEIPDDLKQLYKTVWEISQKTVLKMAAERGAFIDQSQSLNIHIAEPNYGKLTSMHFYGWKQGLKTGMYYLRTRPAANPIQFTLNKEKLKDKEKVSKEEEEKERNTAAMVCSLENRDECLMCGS
T1 sequence (Q7LG56 whole entry): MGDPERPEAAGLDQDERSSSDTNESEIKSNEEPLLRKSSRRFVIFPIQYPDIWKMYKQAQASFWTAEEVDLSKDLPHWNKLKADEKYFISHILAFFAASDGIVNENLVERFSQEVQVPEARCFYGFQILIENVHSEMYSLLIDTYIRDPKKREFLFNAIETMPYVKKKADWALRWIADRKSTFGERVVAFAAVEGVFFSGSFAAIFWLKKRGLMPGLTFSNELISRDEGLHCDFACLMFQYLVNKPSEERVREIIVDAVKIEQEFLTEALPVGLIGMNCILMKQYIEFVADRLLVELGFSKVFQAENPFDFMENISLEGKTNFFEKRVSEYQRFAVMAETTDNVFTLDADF
T1 sequence (P31350 whole entry): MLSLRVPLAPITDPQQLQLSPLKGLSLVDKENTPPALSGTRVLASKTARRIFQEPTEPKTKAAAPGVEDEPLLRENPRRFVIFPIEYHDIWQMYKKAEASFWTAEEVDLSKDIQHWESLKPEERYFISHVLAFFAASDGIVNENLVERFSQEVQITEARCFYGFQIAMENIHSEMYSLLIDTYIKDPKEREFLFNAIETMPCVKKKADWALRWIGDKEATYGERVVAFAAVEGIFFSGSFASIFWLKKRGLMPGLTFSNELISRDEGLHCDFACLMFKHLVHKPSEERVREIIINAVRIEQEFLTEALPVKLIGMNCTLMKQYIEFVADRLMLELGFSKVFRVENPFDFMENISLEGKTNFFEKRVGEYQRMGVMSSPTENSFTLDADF

In order of falling IC50:
1. Oc1ccc(/C=N/NC(=S)Nc2ccc(Cl)cc2)cc1  287 µM
2. Oc1ccc(/C=N/NC(=S)Nc2ccccc2)cc1  242 µM
3. Oc1ccc(/C=N/NC(=S)Nc2ccccc2Cl)cc1  46.8 µM
4. O=[N+]([O-])c1ccc(NC(=S)N/N=C/c2ccc(O)cc2)cc1  45.1 µM
5. Oc1ccc(/C=N/NC(=S)Nc2ccc(O)cc2)cc1  43.3 µM
6. COc1ccccc1NC(=S)N/N=C/c1ccc(O)cc1  41.6 µM
7. O=[N+]([O-])c1ccccc1NC(=S)N/N=C/c1ccc(O)cc1  39.3 µM
8. Cc1ccccc1NC(=S)N/N=C/c1ccc(O)cc1  36.5 µM
9. Cc1cccc(NC(=S)N/N=C/c2ccc(O)cc2)c1  30.4 µM
10. Oc1ccc(/C=N/NC(=S)Nc2ccccc2O)cc1  29.3 µM
11. Oc1ccc(/C=N/NC(=S)Nc2cccc(Cl)c2)cc1  29.3 µM
12. Oc1ccc(/C=N/NC(=S)Nc2cccc(O)c2)cc1  28.6 µM
13. Cc1ccc(NC(=S)N/N=C/c2ccc(O)cc2)cc1  14.2 µM

Source: ChEMBL document CHEMBL3046116, “QSAR and pharmacophore analysis of thiosemicarbazone derivatives as ribonucleotide reductase inhibitors” (Med Chem Res, 2012)
